Source: US6331553A, “Aromatic amine derivatives having NOS inhibiting action” (Chugai Seiyaku Kabushiki Kaisha, priority 1996, dated 2001)
Read-outs that look alike come from different tables or passages of the source.

How the values were obtained:
nNOS [1] = target: T1, nNOS (Rattus norvegicus, UniProt P29476); assay: biochemical; parameters: species or system male Sprague Dawley (SD) rats (cerebral cortex); conditions: for Selectivity eNOS/nNOS: ratio of IC50 values eNOS/nNOS; for Selectivity iNOS/nNOS: ratio of IC50 values iNOS/nNOS
T1 construct: a soluble cytosolic fraction of the finally obtained supernatant was used as the crude enzyme of nNOS; from tissue; host or cells: rat cerebral cortex, soluble cytosolic fraction (100,000×g supernatant)
Method: The crude enzyme of nNOS was prepared by the following procedure. Normal untreated male Sprague Dawley (SD) rats (body weight, 300-400 g) were decapitated; the whole brain was immediately taken out from each animal and the cerebral cortex was separated on ice. Then, 5 volumes of 50 mM Tris-HCl containing 1 mM DTT (pH 7.4) was added and the mixture was homogenized for 3 min and centrifuged at 1,000×g for 10 min. The resulting supernatant was further centrifuged at 100,000×g for 60 min and a soluble cytosolic fraction of the finally obtained supernatant was used as the crude enzyme of nNOS.

eNOS = target: T2, eNOS (Bos taurus, UniProt P29473); assay: Inhibitory effect on crude eNOS (conversion of L-[3H]arginine to L-[3H]citrulline); assay type: biochemical, Cow (pulmonary arterial endothelium cells, CPAE)
T2 construct: the resulting supernatant was used as the crude enzyme of eNOS; endogenous in cells; host or cells: CPAE (cow pulmonary arterial endothelium cells), 1% Triton X-100 extract
T2 sequence (P29473 2-1205): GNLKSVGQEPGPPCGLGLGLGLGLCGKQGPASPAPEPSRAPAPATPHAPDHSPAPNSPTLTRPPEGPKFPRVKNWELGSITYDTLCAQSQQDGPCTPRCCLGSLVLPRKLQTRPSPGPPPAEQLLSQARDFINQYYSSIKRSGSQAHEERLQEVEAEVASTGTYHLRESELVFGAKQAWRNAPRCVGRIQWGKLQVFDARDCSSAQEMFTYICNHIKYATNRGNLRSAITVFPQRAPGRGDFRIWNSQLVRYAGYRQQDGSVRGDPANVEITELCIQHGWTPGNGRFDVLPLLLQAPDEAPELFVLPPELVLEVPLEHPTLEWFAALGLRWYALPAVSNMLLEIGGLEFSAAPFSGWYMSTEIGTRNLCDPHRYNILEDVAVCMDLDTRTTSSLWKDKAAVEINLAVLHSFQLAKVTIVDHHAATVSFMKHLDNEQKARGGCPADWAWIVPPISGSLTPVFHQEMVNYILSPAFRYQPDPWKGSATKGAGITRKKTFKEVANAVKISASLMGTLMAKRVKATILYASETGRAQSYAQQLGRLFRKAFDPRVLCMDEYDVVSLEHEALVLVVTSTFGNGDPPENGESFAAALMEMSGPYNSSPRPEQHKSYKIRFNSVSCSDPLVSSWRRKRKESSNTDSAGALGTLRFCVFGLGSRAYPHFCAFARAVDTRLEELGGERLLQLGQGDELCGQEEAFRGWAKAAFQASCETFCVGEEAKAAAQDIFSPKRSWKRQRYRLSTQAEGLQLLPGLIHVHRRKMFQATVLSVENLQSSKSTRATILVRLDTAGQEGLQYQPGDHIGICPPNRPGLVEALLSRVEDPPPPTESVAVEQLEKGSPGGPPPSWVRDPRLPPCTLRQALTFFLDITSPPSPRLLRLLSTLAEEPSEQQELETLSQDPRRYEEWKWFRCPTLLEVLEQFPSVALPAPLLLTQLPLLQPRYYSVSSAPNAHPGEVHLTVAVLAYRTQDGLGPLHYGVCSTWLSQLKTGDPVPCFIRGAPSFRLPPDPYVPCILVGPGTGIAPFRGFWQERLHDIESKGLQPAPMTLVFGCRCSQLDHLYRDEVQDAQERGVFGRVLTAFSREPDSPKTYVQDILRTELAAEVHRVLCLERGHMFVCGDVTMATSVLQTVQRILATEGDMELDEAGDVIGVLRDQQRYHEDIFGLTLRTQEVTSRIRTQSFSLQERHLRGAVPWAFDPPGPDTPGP
Method: (§1) Compounds of the invention were evaluated for their inhibitory effect on the presently known three NOS isoforms.
Crude enzymes of the respective NOS isoforms were prepared by the following procedures (Nagafuji et al., Neuroreport 6, 1541-1545, 1995).
The crude enzyme of eNOS was prepared by the following procedure. Cow pulmonary arterial endothelium cells (CPAE) were cultured in a MEM medium containing 20% FBS. Several days later, the cells were detached from the flask using a 0.25% trypsin solution containing 1 mM EDTA and, after addition of a suitable amount of FBS, centrifuged at 1,000 rpm for 10 min. A suitable amount of Ca- and Mg-free phosphate buffer (pH 7.4) was added to the precipitating cells and they were centrifuged at 1,000 rpm for 10 min. The same step was repeated to wash the cells which, upon addition of 50 mM Tris-HCl (pH 7.4) containing 1% Triton X-100 and 1 mM DTT, were left to stand in ice for 1 h. Subsequently, the mixture was homogenized for 3 min and kept in ice for 30 min with occasional stirring. Finally, the mixture was centrifuged at 100,000×g for 60 min and the resulting supernatant was used as the crude enzyme of eNOS.
The method of measuring NOS activity was basically the same as already reported by the present inventors and consisted of determining quantitatively the conversion of a substrate L-[^3 H]arginine to a reaction product L-[^3 H] citrulline (Nagafuji et al., in Brain Edema IX (Ito et al, eds.) 60, pp. 285-288, 1994; Nagafuji et al., Neuroreport 6, 1541-1545, 1995)
The reaction solution consisted of 100 nM L-[^3 H] arginine, a prepared crude NOS enzyme sample (10-30 μg/ml protein), 1.25 mM CaCl2, 1 mM EDTA, 10 μg/ml calmodulin, 1 mM NADPH, 100 μM tetrahydrobiopterine, 10 μM FAD, 10 μM FMN and 50 mM Tris-HCl (pH 7.4), to which one of the compounds of the invention or one of the control compounds was added.
(§2) The reaction was started by addition of L-[^3 H] arginine. After incubation at 37° C. for 10 min, the reaction was terminated by addition of 2 ml of 50 mM Tris-HCl (pH 5.5) containing 1 mM EDTA and placing the mixture on ice. The reaction solution was passed through a cation-exchange resin column (Dowex AG50WX-8, Na^+ form, 3.2 ml) to separate the reaction product L-[^3 H] citrulline from the unreacted residual substrate L-[^3 H] arginine. The eluate was combined with another eluate resulting from the passage of a given amount of distilled water through the column and put into a minivial for recovery of L-[^3 H] citrulline. Thereafter, a scintillation fluid was added and the contained radioactivity was measured with a liquid scintillation counter to determine the amount of L-[^3 H] citrulline.
(§3) The activity of nNOS or eNOS was determined by subtracting the activity detected in the absence of CaCl2 and calmodulin from the activity detected in the presence of CaCl2 and calmodulin. The activity of iNOS was detected in the absence of CaCl2 and calmodulin. The protein concentration of each crude enzyme sample was determined with a micro-assay kit of Bio Rad Co. Each Experiment was conducted in a duplicate.
Table 81 lists the mean values of IC50 (the concentration necessary to inhibit 50% activity) of all test compounds against each NOS isoform. The table also lists the ratios of IC50 values to each other as an index of selectivity.

iNOS [2] = target: T3, iNOS (Rattus norvegicus, UniProt Q06518); assay: Inhibitory effect on crude iNOS (conversion of L-[3H]arginine to L-[3H]citrulline); assay type: biochemical, Rats (lungs, LPS treated); conditions: for IC50: mean values, duplicate, crude enzyme from lungs of LPS-treated rats, 37° C. 10 min, read-out: Inhibitory action IC50 iNOS; for Selectivity eNOS/iNOS: ratio of IC50 values eNOS/iNOS
T3 construct: a soluble cytosolic fraction of the finally obtained supernatant was used as the crude enzyme of iNOS; from tissue; host or cells: lungs of LPS-treated rats, soluble cytosolic fraction (100,000×g supernatant)
Method: as §1
The crude enzyme of iNOS was prepared by the following procedure. Rats were administered LPS (10 mg/kg) intraperitoneally and, 6 h later, perfused in a transcardiac manner with physiological saline containing 10 U/ml of heparin; thereafter, lungs were taken out. Subsequently, 5 volumes of 50 mM Tris-HCl containing 1 mM DTT (pH 7.4) was added and the mixture was homogenized for 3 min, followed by centrifugation of the homogenate at 1,000×g for 10 min. The resulting supernatant was centrifuged at 100,000×g for 60 min and a soluble cytosolic fraction of the finally obtained supernatant was used as the crude enzyme of iNOS.
as §2, §3
The table also lists the ratios of IC50 values to each other as an index of selectivity.

NOS isoform = conditions: reported in the literature; cited from earlier work
iNOS [3] = conditions: reported in the literature; cited from earlier work
nNOS [4] = conditions: mouse model of focal cerebral ischemia; cited from earlier work
nNOS [5] = conditions: reported in the literature; cited from earlier work
[6] = mean values, duplicate, crude enzyme from rat cerebral cortex, 37° C. 10 min, read-out: Inhibitory action IC50 nNOS
[7] = mean values, duplicate, crude enzyme from CPAE cells, 37° C. 10 min, read-out: Inhibitory action IC50 eNOS

Row | SMILES | IC50 (nNOS [1]; [6]) | Selectivity eNOS/nNOS (nNOS [1]) | IC50 (eNOS; [7]) | also measured
1 | CSc1ccc([N+](=O)[O-])c(Nc2cccc(CN)c2)n1 [Example 61] | 126 nM | 13 | 1610 nM | –
2 | CCOc1ccc([N+](=O)[O-])c(Nc2cccc(CN)c2)n1 [Example 57] | 70.8 nM | 13 | 947 nM | –
3 | Cc1ccc([N+](=O)[O-])c(Nc2cccc(CN)c2)c1 [Example 151] | 126 nM | 5 | 679 nM | –
4 | CCOc1c(CN)cccc1Nc1cc(C)ccn1 [Example 490] | 18.1 nM | 19 | 347 nM | –
5 | Cc1ccnc(Nc2ccc(Cl)c(CN)c2)c1 [Example 491] | 45.8 nM | 39 | 1770 nM | –
6 | CCOc1c(Nc2cc(C)ccn2)ccc(C)c1CN [Example 522] | 19.7 nM | 20 | 398 nM | –
7 | Cc1ccnc(Nc2cccc(CN)c2Cl)c1 [Example 485] | 54.4 nM | 53 | 2880 nM | Selectivity iNOS/nNOS (nNOS [1]): 32; IC50 (iNOS [2]): 1770 nM; Selectivity eNOS/iNOS (iNOS [2]): 1.6
8 | COc1ccc([N+](=O)[O-])c(Nc2cccc(CN)c2)c1 [Example 153] | 29.8 nM | 20 | 586 nM | –
9 | Cc1ccnc(Nc2cccc(C3(N)CCC3)c2)c1 [Example 488] | 39.9 nM | 8 | 298 nM | –
10 | COc1ccc([N+](=O)[O-])c(Nc2ccc(F)c(CN)c2)n1 [Example 467] | 19.6 nM | 14 | 275 nM | –
11 | Cc1ccnc(Nc2cccc(C(C)(C)N)c2)c1 [Example 479] | 66.9 nM | 12 | 802 nM | –
12 | COc1ccc([N+](=O)[O-])c(Nc2ccc(Cl)c(CN)c2)n1 [Example 466] | 35.5 nM | 12 | 421 nM | –
13 | COC(=O)[C@@H](N)CCCNC(=N)N[N+](=O)[O-] [L-NAME, N^G -nitro-L-arginine methyl ester] | – | – | – | highly selective inhibitory effect on a specific NOS isoform (NOS isoform): no existing NOS inhibitors including L-NA and N^G -nitro-L-arginine methyl ester (L-NAME) have a highly selective inhibitory effect on a specific NOS isoform
14 | COc1ccc([N+](=O)[O-])c(Nc2cccc(CN)c2)n1 [Example 18] | 22.6 nM | 14 | 322 nM | Selectivity iNOS/nNOS (nNOS [1]): 41; IC50 (iNOS [2]): 917 nM; Selectivity eNOS/iNOS (iNOS [2]): 0.14
15 | CCCOc1c(CN)cccc1Nc1cc(C)ccn1 [Example 506] | 29.1 nM | 45 | 1290 nM | –
16 | CCOc1c(CN)cccc1Nc1nc(OC)ccc1[N+](=O)[O-] [Example 468] | 56.3 nM | 44 | 2480 nM | –
17 | Cc1ccnc(Nc2cccc(CN)c2C)c1 [Example 481] | 78.1 nM | 25 | 1980 nM | –
18 | CCc1ccc(Nc2cc(C)ccn2)cc1CN [Example 482] | 50.5 nM | 27 | 1350 nM | –
19 | N=C(N)NN [AG, aminoguanidine] | – | – | – | selectivity for iNOS (iNOS [3]): a certain degree of selectivity for iNOS

Row | SMILES | IC50 (nNOS [1]; [6]) | Selectivity eNOS/nNOS (nNOS [1]) | IC50 (eNOS; [7]) | also measured
20 | Cc1ccnc(Nc2cccc(CN)c2)c1 [Example 478] | 61.6 nM | 7 | 448 nM | –
21 | COc1c(CN)cccc1Nc1cc(C)ccn1 [Example 541] | 25.9 nM | 28 | 713 nM | –
22 | COc1ccc([N+](=O)[O-])c(Nc2cccc(CN)c2Cl)n1 [Example 469] | 40 nM | 25 | 994 nM | –
23 | COc1ccc([N+](=O)[O-])c(Nc2cccc(CN)c2C)n1 [Example 458] | 20.8 nM | 19 | 403 nM | –
24 | N=C(NCCC[C@H](N)C(=O)O)N[N+](=O)[O-] [L-NA, N^G -nitro-L-arginine, reference compound] | – | – | – | IC50 (iNOS [2]): 3460 nM; percent inhibition of nNOS activity and percent reduction of infarct volume (nNOS [4]): correlate to each other
25 | Cc1ccnc(Nc2ccccc2CCN)c1 [Example 484] | – | 18 | – | IC50 (nNOS [1]): 69.2 nM; IC50 (eNOS): 1260 nM
26 | CCSC(=N)NCCC[C@H](N)C(=O)O [L-EIN, S-ethyl-L-thiocitrulline] | – | – | – | selectivity for nNOS (nNOS [5]): a certain degree of selectivity for nNOS
27 | CCc1ccc([N+](=O)[O-])c(Nc2cccc(CN)c2)n1.Cl [Example 53, 2-(3-aminomethylphenylamino)-6-ethyl-3-nitropyridine hydrochloride] | 86.1 nM | 77 | 6620 nM | –
28 | CC(=N)NCCC[C@H](N)C(=O)O [L-NIO, N^G -iminoethyl-L-ornithine] | – | – | – | selectivity for iNOS (iNOS [3]): a certain degree of selectivity for iNOS
29 | Cc1ccnc(Nc2ccc(CCN)cc2)c1 [Example 489] | – | – | – | IC50 (nNOS [1]): 22.1 nM
30 | COc1ccc([N+](=O)[O-])c(Nc2ccc(CCN)cc2)n1 [Example 460] | 112 nM | 11 | 1240 nM | –
31 | Cc1ccnc(Nc2cccc(CN)c2OC(C)C)c1 [Example 543] | 12.5 nM | 20 | 250 nM | –
32 | COc1ccc([N+](=O)[O-])c(Nc2cccc(CN)c2OC)n1 [Example 465] | 31.2 nM | 32 | 1000 nM | –
33 | COc1ccc([N+](=O)[O-])c(Nc2cccc(C(C)(C)N)c2)n1 [Example 462] | 16.4 nM | 16 | 257 nM | –
34 | Cc1ccc([N+](=O)[O-])c(Nc2cccc(CN)c2)n1.Cl [Example 52, 2-(3-aminomethylphenylamino)-6-methyl-3-nitropyridine hydrochloride] | 79.8 nM | 19 | 1480 nM | –
35 | CCOc1c(Nc2cc(C)ccn2)ccc(Cl)c1CN [Example 521] | 19.5 nM | 25 | 485 nM | –
36 | CCOc1ccc(Nc2cc(C)ccn2)cc1CN [Example 483] | 65.4 nM | 11 | 711 nM | –
37 | CSC(=N)NCCC[C@H](N)C(=O)O [L-MIN, S-methyl-L-thiocitrulline] | – | – | – | selectivity for nNOS (nNOS [5]): a certain degree of selectivity for nNOS
